Laboratory results: patent US11091434B2, “Type III deiodinase inhibitors and uses thereof” (HADASIT MEDICAL RESEARCH SERVICES AND DEVELOPMENT LTD., priority 2014, dated 2021)
“Also recorded” adds a separate entry of the source.

How the values were obtained:
OVCAR3 cells [1] = test: OVCAR3 cell viability by WST-1 assay; assay type: cell-based, Human; conditions: OVCAR3, 0.5 μM, 48 h
Protocol: (§1) Cell lines: Human ovarian adenocarcinoma cells employed in the study were OVCAR-3 (ATCC HTB-161), A2780 (Sigma Aldrich) and SKOV-3 (ATCC HTB-77). Human normal embryonic kidney cells, HEK 293 (ATCC CRL1573) were used. All cells were cultured in RPMI1640 supplemented with 10% heat-inactivated FBS and antibiotics. Before conducting an experiment, cells were cultured for 24 h in RPMI1640 supplemented with 1.5% heat-inactivated charcoal stripped FBS and antibiotics.
Viability: WST-1 (Roche; 10% final concentration) was incubated with cells at 37° C. for 2 h and read with a MicroELISA reader at 440 nm.
(§2) OVCAR3 cells were collected and seeded in 96 well plates (10,000/well). The six compounds were then dissolved in DMSO and added to a final 0.5 μM concentration for 48 h of incubation. After incubation the cells were imaged by light microscopy (FIG. 13B). […] These cells were then examined for cell viability by WST-1 assay (FIG. 13C).

OVCAR3 cells [2] = test: OVCAR3 cell density and morphology by light microscopy; assay type: cell-based, Human; conditions: OVCAR3, 0.5 μM, 48 h
Protocol: as §1
Microscopy: The cells were visualized using a microscope equipped with a camera (model IX71; Olympus) with a 20_/0.50 objective lens and Cell^A (version 3.1) Olympus software imaging.
as §2

[3] = Water solubility (qualitative comparison); assay type: physicochemical; conditions: compared with PBENZ (compound 4)
[4] = Deiodination assay: deiodination of T4 by DIO3 mimic compound A; assay type: biochemical; conditions: for inhibition of the deiodinase activity (deiodination of T4) of DIO3 mimic compound A: 100 mM phosphate buffer pH 7.5, 10 mM DTT, 37° C., rT3 formation by HPLC; for IC50 for inhibiting the DIO3 mimic: mimic used in micromolar concentrations, FIG. 5
Protocol: The deiodination of thyroxine by compound A (a DIO3 mimetic; FIGS. 2 and 3) in the presence of various thiourea derivatives was studied. When the commonly used antithyroid drugs such as thiourea derivatives (e.g., 6-n-propyl-2-thiouracil (PTU), 6-methyl-2-thiouracil (MTU) and 1-methyl-3H-imidazole-2-thione or methimazole (MMI)) were used, no inhibition of the deiodinase activity was observed.
The deiodination reactions were carried out in 100 mM phosphate buffer (pH 7.5) with 10 mM dithiothreitol (DTT) at 37° C. Diselenol (Compound A) was freshly prepared by reducing the corresponding diselenide, with NaBH4 prior to use. The reaction products were analyzed by reverse-phase HPLC (Lichrospher C18 column, 4.6 μm, 150 mm×5 mm) with gradient elution using acetonitrile/ammonium acetate (pH 4.0) as the mobile phase. The formation of rT3 was monitored at λ=275 nm and the amounts of deiodinated products formed in the reactions in the presence or absence of test compounds were calculated by comparing the peak areas.

DIO1 = biological target: T1, DIO1 (Homo sapiens, UniProt P49895); conditions: cited from earlier work
T1 sequence (P49895 1-249): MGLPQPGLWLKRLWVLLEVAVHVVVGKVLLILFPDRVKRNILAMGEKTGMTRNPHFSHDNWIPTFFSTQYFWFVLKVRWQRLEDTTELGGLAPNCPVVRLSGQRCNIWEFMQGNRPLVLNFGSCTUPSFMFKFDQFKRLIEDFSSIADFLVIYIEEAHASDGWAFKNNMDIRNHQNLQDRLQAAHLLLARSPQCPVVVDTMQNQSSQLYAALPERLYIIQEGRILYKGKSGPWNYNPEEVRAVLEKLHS

DIO2 = DIO2 (Homo sapiens, UniProt Q92813); conditions: cited from earlier work
DIO3 = biological target: T2, DIO3 (Homo sapiens, UniProt P55073); conditions: cited from earlier work
T2 sequence (P55073 1-304): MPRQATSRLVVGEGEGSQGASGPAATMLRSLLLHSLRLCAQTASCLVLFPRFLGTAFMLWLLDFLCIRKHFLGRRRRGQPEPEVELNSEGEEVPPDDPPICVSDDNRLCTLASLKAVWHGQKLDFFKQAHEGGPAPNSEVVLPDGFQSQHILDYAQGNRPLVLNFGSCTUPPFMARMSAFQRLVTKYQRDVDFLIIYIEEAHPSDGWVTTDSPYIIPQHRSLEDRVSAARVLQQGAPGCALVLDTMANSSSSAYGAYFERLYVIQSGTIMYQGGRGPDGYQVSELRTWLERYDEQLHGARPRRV

[5] = Serum and brain thyroid hormone levels after 3 weeks ICV administration by osmotic minipumps; assay type: in vivo, BALB/c mice; conditions: mice; for change in brain free T3 levels (in words): one sided non-paired t test; for Serum Free T3, Mean / Serum Free T4, Mean / Brain Free T3, Mean / Brain Free T4, Mean: ICV by osmotic minipump for 3 weeks, IOP 2 mg/kg, ITYR 5 mg/kg; for Serum Free T3, Mean: vehicle 14.45; for Serum Free T4, Mean: vehicle 36.05; for Brain Free T3, Mean: vehicle 72.74; for Brain Free T4, Mean: vehicle 250.54
Protocol: Deaths were related to the surgical procedure.
At the end of the tests, animals were anesthetized with veterinary Pental (13.333 mg/kg) and cardiac blood was drawn for peripheral T3 (triiodothyronine) and T4 (thyroxine) levels. Brains were harvested for evaluating brain T3, T4 levels. Hormone levels in the sera and brains were measured by SunLong Biotech Mouse Ultrasensitivity total and free T3 and T4 ELISA Kits, employing producing a standard curve followed by actual measurement, in which OD levels obtained by spectrophotometer were converted, using the standard curve, to pg/ml values.

[6] = Novelty suppressed feeding test (NSFT) after 3 weeks ICV administration; conditions: mice, ICV 3 weeks, compared to vehicle; ANCOVA with brain T3 as covariate
Protocol: The intra-cerebroventricular injection was performed via a cannula inserted as follows: first, for the chronic administration of compounds or vehicle, osmotic minipumps (Alzet model 1004 for up to 28 days administration) were employed. Empty minipumps were filled under sterile conditions with 0.1 ml of PBS or with PBS containing either one of the DIO3 inhibitors and then connected to brain infusion kits. The filled minipumps connected to the brain infusion kits were than primed in an incubator at 37° C. before being implanted into the animals. At the surgery itself, each mouse was anaesthetized by intraparenteral (i.p.) injection of anesthesia. The anesthesia solution was prepared as follows: for each 2 ml of solution, 900 μl ketamine plus 100 μl xylazine 2% was supplemented with 1000 μl of 0.9% NaCl saline solution. 70 μl of the anesthesia solution was administered i.p to a 20 gram (about 100 μl for 30 gram) weighing animal. […]
After the last treatment administration, all food was removed from the cage for 24 hours (water was available ad libitum). […] Time elapsing from the introduction of the animal into the arena until it commences eating (latency to feed), total distance move, velocity and time spent in the arena periphery (lateral 10 cm on each side) and center were recorded. […] The mean of the two ratings was calculated and used for the statistical analysis.

DIO2, sequence (Q92813 whole entry, species assumed): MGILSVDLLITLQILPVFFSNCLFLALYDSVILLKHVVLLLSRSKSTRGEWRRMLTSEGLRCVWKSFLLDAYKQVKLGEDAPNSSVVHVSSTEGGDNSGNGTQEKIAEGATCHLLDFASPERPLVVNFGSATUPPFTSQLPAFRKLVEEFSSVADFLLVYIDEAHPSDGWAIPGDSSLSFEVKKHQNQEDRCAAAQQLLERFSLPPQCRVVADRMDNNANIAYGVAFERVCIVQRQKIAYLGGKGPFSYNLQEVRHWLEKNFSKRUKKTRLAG

Which cell viability (OVCAR3 cells [1]) does the source give for O=C1C(Br)=C(Br)C(=O)N1CCc1ccc(O)c(O)c1 [Compound 7] here?
Its cell viability is “significant reduction in cell viability”.

And the “cell density and cell morphology” value (OVCAR3 cells [2])?
The value was “marked reduction in cell density and deformed cell morphology”.

Which results are given for O=C(O)C(Cc1ccc(O)cc1)N1C(=O)C(Br)=C(Br)C1=O (stereo not shown) [Compound 3]?
cell viability (OVCAR3 cells [1]): low reduction in viability; solubility in water [3]: more soluble in water; reaction with the DIO3 mimic [4]: react stoichiometrically; inhibition of the deiodinase activity (deiodination of T4) of DIO3 mimic compound A [4]: Inhibition; IC50 for inhibiting the DIO3 mimic [4]: micromolar range

With O=C(O)CI [IAA, iodoacetic acid] as the compound, how does the “inhibition of DIO1” value (DIO1) read?
Its value is “inhibitor”.

What about the “inhibition of DIO2” value (DIO2) of the same compound?
The value was “cannot inhibit”.

And the “inhibition of DIO3” value (DIO3)?
The value was “cannot inhibit”.

For O=C(O)C(Cc1cc(I)c(O)c(I)c1)N1C(=O)C(Br)=C(Br)C1=O (stereo not shown) [Compound 5], which cell viability (OVCAR3 cells [1]) is on record?
The cell viability was “significant reduction in cell viability”.

What about the “change in brain free T3 levels (in words)” value ([5]; ICV 3 weeks, vs. vehicle) of the same compound?
The value was “not significantly increased”.

And the “Serum Free T3, Mean” value [5]?
Its value is 12.33 pg/mL.

What about the “Serum Free T4, Mean” value [5] of the same compound?
The value was 37.00 ng/mL.

What about the “Brain Free T3, Mean” value [5] of the same compound?
The value was 81.98 pg/mL.

And the “Brain Free T4, Mean” value [5]?
The value was 262.86 ng/mL.

What about the “cell density and cell morphology” value (OVCAR3 cells [2]) of the same compound?
Its value is “marked reduction in cell density and deformed cell morphology”.

And the “latency to feed in the novelty suppressed feeding test” value [6]?
The value was “reduced latency to feed”.

With O=C1C(Br)=C(Br)C(=O)N1Cc1ccccc1 [B, 2,3-dibromo-N-benzylmaleimide] as the compound, how does the “inhibition of the deiodinase activity (deiodination of T4) of DIO3 mimic compound A” value (“inhibition of the deiodinase activity” below) [4] read?
The value was “inhibit”.

Which “inhibition of the deiodinase activity” value [4] does the source give for Cn1cc[nH]c1=S [MMI, 1-methyl-3H-imidazole-2-thione, reference compound] here?
The value was “no inhibition”.

For O=C(O)CC(C(=O)O)N1C(=O)C(Br)=C(Br)C1=O (stereo not shown) [Compound 8], which cell viability (OVCAR3 cells [1]) is on record?
The cell viability was “significant reduction in cell viability”.

What about the “cell density and cell morphology” value (OVCAR3 cells [2]) of the same compound?
Its value is “marked reduction in cell density and deformed cell morphology”.

With CCC(Cc1c(I)cc(I)c(N2C(=O)C(Br)=C(Br)C2=O)c1I)C(=O)O (stereo not shown) [Compound 6] as the compound, how does the cell viability (OVCAR3 cells [1]) read?
Its cell viability is “low reduction in viability”.

What about the “increase in brain free T3 levels” value ([5]; ICV 3 weeks, vs. vehicle) of the same compound?
The value was “about 46%”.

And the “change in brain free T3 levels (in words)” value ([5]; ICV 3 weeks, vs. vehicle)?
Its value is “significant increase”.

And the “Serum Free T3, Mean” value [5]?
The value was 12.23 pg/mL.

And the “Serum Free T4, Mean” value [5]?
Its value is 35.75 ng/mL.

What about the “Brain Free T3, Mean” value [5] of the same compound?
Its value is 84.30 pg/mL.

What about the “Brain Free T4, Mean” value [5] of the same compound?
The value was 244.11 ng/mL.

And the “latency to feed in the novelty suppressed feeding test” value [6]?
Its value is “reduced latency to feed”.

What does the source list for Cc1cc(=O)[nH]c(=S)[nH]1 [MTU, 6-methyl-2-thiouracil]?
inhibition of DIO1 (DIO1): inhibit; inhibition of DIO3 (DIO3): do not inhibit; inhibition of the deiodinase activity (deiodination of T4) of DIO3 mimic compound A [4]: no inhibition

With CN1C(=O)C(Br)=C(Br)C1=O [Compound C, 2,3-dibromo-N-methylmaleimide] as the compound, how does the “inhibition of the deiodinase activity” value [4] read?
Its value is “inhibit; also recorded: Inhibition”.

What does the source list for O=C(O)c1ccc(N2C(=O)C(Br)=C(Br)C2=O)cc1 [Compound 4]?
cell viability (OVCAR3 cells [1]): No effect; reaction with the DIO3 mimic [4]: react stoichiometrically; IC50 for inhibiting the DIO3 mimic [4]: micromolar range

Which “inhibition of DIO1” value (DIO1) does the source give for CCCc1cc(=O)[nH]c(=S)[nH]1 [PTU, 6-n-propyl-2-thiouracil] here?
The value was “inhibit”.

And the “inhibition of DIO3” value (DIO3)?
Its value is “do not inhibit”.

What about the “inhibition of the deiodinase activity” value [4] of the same compound?
The value was “no inhibition”.
